According to patent publication EP1770089A1, “Pyranodibenzofuran derivatives with antifungal and antibacterial activity” (priority 2005, dated 2007):
In brackets after ≈: the same amount, converted by molar mass.

How the values were obtained:
[1] = system: M. tuberculosis INH resistant (2003/1762); assay: microbe, parasite or virus in culture; format: cell-based; conditions: Mycobacterium tuberculosis
[2] = system: M. tuberculosis RIF resistant (2004/0499); assay: microbe, parasite or virus in culture; format: cell-based; conditions: Mycobacterium tuberculosis

Row | SMILES | MIC99 [1] | MIC99 [2]
1 | CC1(C)C=Cc2c(ccc3oc4ccccc4c23)O1 [Compound 9, 3,3-dimethyl-3H-benzofuro[3,2-f][1]benzopyran] | 5 µg/mL (≈ 20 µM) | 5 µg/mL (≈ 20 µM)
2 | CC1(C)CCc2c(ccc3oc4ccccc4c23)O1 [Compound 16, 1,2-dihydro-3,3-dimethyl-3H-benzofuro[3,2-f][1]benzopyran] | 1 µg/mL (≈ 3.96 µM) | 1 µg/mL (≈ 3.96 µM)
3 | NNC(=O)c1ccncc1 [INH, isoniazid, reference compound] | 5 µg/mL (≈ 36.5 µM) | 0.1 µg/mL (≈ 0.729 µM)
